Patent publication US9328122B2, “7-substituted Hanfangichin B derivative, and preparation method and use thereof” (HANGZHOU BENSHENG PHARMACEUTICAL CO., LTD., priority 2012, dated 2016)
Converted amounts (≈) assume the structure as drawn. Counter-ions that a name gives are not always drawn.

Assays:
[1] = tested on: Hep G2 transplanted tumor; assay: Transplanted tumor of liver cancer in nude mice; settings: BS-FC-308 35 mg/kg/time, erlotinib hydrochloride 20 mg/kg/time
Description: Liver cancer cell lines: Hep G2 (human liver cancer cell line);
Animal: BALBc nude mice (immunodeficient mice), 8 weeks, female, purchased from Shanghai Laboratory Animal Center of Chinese Academy of Sciences, China.
Under sterile conditions, the Hep G2 cells in the logarithmic growth phase were respectively collected and injected subcutaneously in an amount of 2.3×10^7/0.2 mL/nude mice (cell viability >90%) into the left subaxillary of the nude mice, thus establishing a transplanted tumor model of liver cancer in nude mice. The mice were administered from the second day after inoculation. The experimental group was intragastrically administered with the experimentally designed amount, the negative control group was intragastrically administered with sterile water, and the positive control group was intragastrically administered with erlotinib hydrochloride. Each mouse was intragastrically administered in 0.4 ml each time and 3 times a day, at 8:00, 14:00 and 20:00, with 6-hour intervals. The administrations were successive for 10 days. The day before administration was deemed as Day 0 and the weight and tumor size of the mice were determined every 5 days to produce a dynamic plot on weight and tumor growth (the experimental results are presented as mean±SD). On Day 28, the mice were sacrificed and the tumors were taken out and weighed. The tumor inhibition rate (%) after the effect of the medicament was calculated based on a tumor inhibition rate of the control group being zero.
The experimental data for each group were analyzed by using the One-way ANOVA method in the SPSS 19.0 statistical software and were compared with the control group for significance of difference.

[2] = tested on: human colon cancer cell line LoVo; settings: LoVo tumor-bearing nude mice, 60 days; cited from earlier work
[3] = tested on: K562/ADR (K562adr, drug-resistant chronic myeloid leukemia) cells; assay: MTT cell growth inhibition, leukemia cells; type: cell-based; settings: Homo sapiens, K562/Adr, 72 h
Source text: (§1) Leukemia cell lines: leukemia cell lines: K562adr (drug-resistant, chronic myeloid leukemia, CML), NB4 (acute promyelocytic leukemia, AML), Kasumi-1 (acute myeloid leukemia M2 type, AML-M2), Jurkat (acute lymphoblastic leukemia, ALL), all of which were donated by Cancer Research Institute of Zhejiang University, China; and H9 (acute lymphoblastic leukemia, ALL), which was purchased from China Center for Type Culture Collection.
(§2) Reagents: The standard sample of fangchinoline (FAN) was purchased from Ci Yuan Biotechnology Co., Ltd., Shaanxi, China; and the 7-substituted fangchinoline derivatives according to the present invention.
(§3) 6000 well-growing leukemia cells were obtained and inoculated into wells of a 96-well cell culture plate. The culture medium was a RPMI-1640 cell culture medium containing 10% fetal bovine serum. After adding the 7-substituted fangchinoline derivatives of different concentrations the next day and mixing uniformly, the plate was placed in a carbon dioxide cell incubator (5% CO2) at 37° C. and incubating for 72 hours. Then the viable cell concentration was determined by the MTT method.

[4] = tested on: NB4 (acute promyelocytic leukemia) cells; assay: MTT cell growth inhibition, leukemia cells; type: cell-based; settings: Homo sapiens, 72 h
Source text: as §1, §2, §3

[5] = tested on: MG-63 (osteosarcoma) cells; assay: MTT cell growth inhibition, solid tumor cells; type: cell-based; settings: Homo sapiens, MG-63, 72 h
Source text: (§4) Hep-2 (laryngeal carcinoma), A549 (human lung cancer), CaES-17 (esophageal cancer cell), PC-3 (prostate cancer), CNE (nasopharyngeal carcinoma cell) and SK-OV-3 (ovarian cancer cell), all of which were purchased from China Center For Type Culture Collection; RKO (human colon adenocarcinoma cell), MGC-803 (human gastric cancer cell), MG-63 (osteosarcoma), and U87-MG (malignant glioma cell), all of which were purchased from Fuxiang Bio-tech Co. Ltd., Shanghai, China; PANC-1 (pancreatic cancer), Becap37 (human breast cancer cell), Hela (human cervical cancer cell) and Hep G2 (human liver cancer cell), all of which were donated by Cancer Research Institute of Zhejiang University, China.
as §3, with “human solid tumor” for “leukemia”, “DMEM High Glucose” for “a RPMI-1640”, “serum. The plate was placed in a carbon dioxide cell incubator (5% CO2) at 37° C. and incubated for 24 hours.” for “serum.”, “added with” for “adding the”, “concentration” for “concentrations the next day”, “incubated” for “incubating”

[6] = tested on: A549 (human lung cancer) cells; assay: MTT cell growth inhibition, solid tumor cells; type: cell-based; settings: Homo sapiens, A549, 72 h
Source text: as §4
as §3, with “human solid tumor” for “leukemia”, “DMEM High Glucose” for “a RPMI-1640”, “serum. The plate was placed in a carbon dioxide cell incubator (5% CO2) at 37° C. and incubated for 24 hours.” for “serum.”, “added with” for “adding the”, “concentration” for “concentrations the next day”, “incubated” for “incubating”

[7] = tested on: MGC-803 (human gastric cancer) cells; assay: MTT cell growth inhibition, solid tumor cells; type: cell-based; settings: MGC-803, 72 h
Source text: as §4
as §3, with “human solid tumor” for “leukemia”, “DMEM High Glucose” for “a RPMI-1640”, “serum. The plate was placed in a carbon dioxide cell incubator (5% CO2) at 37° C. and incubated for 24 hours.” for “serum.”, “added with” for “adding the”, “concentration” for “concentrations the next day”, “incubated” for “incubating”

[8] = tested on: RKO (human colon adenocarcinoma) cells; assay: MTT cell growth inhibition, solid tumor cells; type: cell-based; settings: Homo sapiens, 72 h
Source text: as §4
as §3, with “human solid tumor” for “leukemia”, “DMEM High Glucose” for “a RPMI-1640”, “serum. The plate was placed in a carbon dioxide cell incubator (5% CO2) at 37° C. and incubated for 24 hours.” for “serum.”, “added with” for “adding the”, “concentration” for “concentrations the next day”, “incubated” for “incubating”

[9] = tested on: Becap-37 (human breast cancer) cells; assay: MTT cell growth inhibition, solid tumor cells; type: cell-based; settings: Homo sapiens, 72 h
Source text: as §4
as §3, with “human solid tumor” for “leukemia”, “DMEM High Glucose” for “a RPMI-1640”, “serum. The plate was placed in a carbon dioxide cell incubator (5% CO2) at 37° C. and incubated for 24 hours.” for “serum.”, “added with” for “adding the”, “concentration” for “concentrations the next day”, “incubated” for “incubating”

[10] = tested on: U87-MG (malignant glioma) cells; assay: MTT cell growth inhibition, solid tumor cells; type: cell-based; settings: Homo sapiens, U-87 MG, 72 h
Source text: as §4
as §3, with “human solid tumor” for “leukemia”, “DMEM High Glucose” for “a RPMI-1640”, “serum. The plate was placed in a carbon dioxide cell incubator (5% CO2) at 37° C. and incubated for 24 hours.” for “serum.”, “added with” for “adding the”, “concentration” for “concentrations the next day”, “incubated” for “incubating”

[11] = tested on: Hela (human cervical cancer) cells; assay: MTT cell growth inhibition, solid tumor cells; type: cell-based; settings: Homo sapiens, HeLa, 72 h
Source text: as §4
as §3, with “human solid tumor” for “leukemia”, “DMEM High Glucose” for “a RPMI-1640”, “serum. The plate was placed in a carbon dioxide cell incubator (5% CO2) at 37° C. and incubated for 24 hours.” for “serum.”, “added with” for “adding the”, “concentration” for “concentrations the next day”, “incubated” for “incubating”

[12] = tested on: Hep-2 (laryngeal carcinoma) cells; assay: MTT cell growth inhibition, solid tumor cells; type: cell-based; settings: Homo sapiens, HEp-2, 72 h
Source text: as §4
as §3, with “human solid tumor” for “leukemia”, “DMEM High Glucose” for “a RPMI-1640”, “serum. The plate was placed in a carbon dioxide cell incubator (5% CO2) at 37° C. and incubated for 24 hours.” for “serum.”, “added with” for “adding the”, “concentration” for “concentrations the next day”, “incubated” for “incubating”

[13] = tested on: Hep G2 (human liver cancer) cells; assay: MTT cell growth inhibition, solid tumor cells; type: cell-based; settings: Homo sapiens, HepG2, 72 h
Source text: as §4
as §3, with “human solid tumor” for “leukemia”, “DMEM High Glucose” for “a RPMI-1640”, “serum. The plate was placed in a carbon dioxide cell incubator (5% CO2) at 37° C. and incubated for 24 hours.” for “serum.”, “added with” for “adding the”, “concentration” for “concentrations the next day”, “incubated” for “incubating”

[14] = tested on: RPMI 8226 (multiple myeloma) cells; assay: MTT cell growth inhibition, multiple myeloma cells; type: cell-based, human; settings: Homo sapiens, RPMI-8226, 72 h
Description: Myeloma cell lines: RPMI8226 (multiple myeloma), purchased from Fuxiang Bio-tech Co. Ltd., Shanghai, China.
as §3, with “well-growing” for “well-growing leukemia”, “incubated” for “incubating”

[15] = tested on: Kasumi-1 (acute myeloid leukemia M2 type) cells; assay: MTT cell growth inhibition, leukemia cells; type: cell-based, human; settings: Homo sapiens, Kasumi 1, 72 h
Source text: as §1, §2, §3

[16] = tested on: Jurkat (acute lymphoblastic leukemia) cells; assay: MTT cell growth inhibition, leukemia cells; type: cell-based, human; settings: Homo sapiens, Jurkat, 72 h
Source text: as §1, §2, §3

[17] = tested on: H9 (acute lymphoblastic leukemia) cells; assay: MTT cell growth inhibition, leukemia cells; type: cell-based, human; settings: Homo sapiens, 72 h
Source text: as §1, §2, §3

[18] = tested on: CaEs-17 (esophageal cancer) cells; assay: MTT cell growth inhibition, solid tumor cells; type: cell-based, human; settings: Homo sapiens, CaEs17, 72 h
Source text: as §4
as §3, with “human solid tumor” for “leukemia”, “DMEM High Glucose” for “a RPMI-1640”, “serum. The plate was placed in a carbon dioxide cell incubator (5% CO2) at 37° C. and incubated for 24 hours.” for “serum.”, “added with” for “adding the”, “concentration” for “concentrations the next day”, “incubated” for “incubating”

[19] = tested on: CNE (nasopharyngeal carcinoma) cells; assay: MTT cell growth inhibition, solid tumor cells; type: cell-based, human; settings: Homo sapiens, 72 h
Source text: as §4
as §3, with “human solid tumor” for “leukemia”, “DMEM High Glucose” for “a RPMI-1640”, “serum. The plate was placed in a carbon dioxide cell incubator (5% CO2) at 37° C. and incubated for 24 hours.” for “serum.”, “added with” for “adding the”, “concentration” for “concentrations the next day”, “incubated” for “incubating”

[20] = tested on: SK-OV-3 (ovarian cancer) cells; assay: MTT cell growth inhibition, solid tumor cells; type: cell-based, human; settings: Homo sapiens, SK-OV-3, 72 h
Source text: as §4
as §3, with “human solid tumor” for “leukemia”, “DMEM High Glucose” for “a RPMI-1640”, “serum. The plate was placed in a carbon dioxide cell incubator (5% CO2) at 37° C. and incubated for 24 hours.” for “serum.”, “added with” for “adding the”, “concentration” for “concentrations the next day”, “incubated” for “incubating”

[21] = tested on: PC-3 (prostate cancer) cells; assay: MTT cell growth inhibition, solid tumor cells; type: cell-based, human; settings: Homo sapiens, 72 h
Source text: as §4
as §3, with “human solid tumor” for “leukemia”, “DMEM High Glucose” for “a RPMI-1640”, “serum. The plate was placed in a carbon dioxide cell incubator (5% CO2) at 37° C. and incubated for 24 hours.” for “serum.”, “added with” for “adding the”, “concentration” for “concentrations the next day”, “incubated” for “incubating”

[22] = tested on: PANC-1 (pancreatic cancer) cells; assay: MTT cell growth inhibition, solid tumor cells; type: cell-based, human; settings: Homo sapiens, PANC-1, 72 h
Source text: as §4
as §3, with “human solid tumor” for “leukemia”, “DMEM High Glucose” for “a RPMI-1640”, “serum. The plate was placed in a carbon dioxide cell incubator (5% CO2) at 37° C. and incubated for 24 hours.” for “serum.”, “added with” for “adding the”, “concentration” for “concentrations the next day”, “incubated” for “incubating”

## C#Cc1cccc(Nc2ncnc3cc(OCCOC)c(OCCOC)cc23)c1 [Erlotinib hydrochloride, reference compound]
[1]; Hep G2 transplanted tumor, Day 28, intragastric 3 times a day for 10 days
  Mass of tumor: 839 ± 270.62 mg
[1]; Hep G2 transplanted tumor, Day 28, intragastric 3 times a day for 10 days, control = 0
  Tumor Inhibition rate: 34.5%
[1]; Hep G2 tumor nude mice, before administration, intragastric 3 times a day, mean±SD
  Body Weight (g) Initial: 21.4 ± 0.26 g
[1]; Hep G2 tumor nude mice, final, intragastric 3 times a day for 10 days, mean±SD
  Body Weight (g) Final: 20.4 ± 1.72 g

## COc1ccc2cc1Oc1ccc(cc1)C[C@H]1c3cc(c(OC)cc3CCN1C)Oc1c(O)c(OC)cc3c1[C@H](C2)N(C)CC3 [FAN, Fangchinoline, reference compound]
[2]
  adverse reactions during the administration: do not exhibit adverse reactions
[3]
  IC50: 0.36 µg/mL (≈ 0.591 µM)
  IC90: 4.13 µg/mL (≈ 6.78 µM)
[4]
  IC50: 0.58 µg/mL (≈ 0.953 µM)
  IC90: 2.59 µg/mL (≈ 4.25 µM)
[5]
  IC50: 1.7 µg/mL (≈ 2.79 µM)
  IC90: 3.7 µg/mL (≈ 6.08 µM)
[6]
  IC50: 3.26 µg/mL (≈ 5.36 µM)
  IC90: 9.81 µg/mL (≈ 16.1 µM)
[7]
  IC50: 1.08 µg/mL (≈ 1.77 µM)
  IC90: 6.42 µg/mL (≈ 10.5 µM)
[8]
  IC50: 0.92 µg/mL (≈ 1.51 µM)
  IC90: 3.11 µg/mL (≈ 5.11 µM)
[9]
  IC50: 1.79 µg/mL (≈ 2.94 µM)
  IC90: 6.2 µg/mL (≈ 10.2 µM)
[10]
  IC50: 1.12 µg/mL (≈ 1.84 µM)
  IC90: 3.79 µg/mL (≈ 6.23 µM)
[11]
  IC50: 1.96 µg/mL (≈ 3.22 µM)
  IC90: 6.12 µg/mL (≈ 10.1 µM)
[12]
  IC50: 3.6 µg/mL (≈ 5.91 µM)
  IC90: 10 µg/mL (≈ 16.5 µM)
[13]
  IC50: 1.81 µg/mL (≈ 2.97 µM)
  IC90: 5.23 µg/mL (≈ 8.59 µM)
[14]
  IC50: 0.04 µg/mL (≈ 0.0657 µM)
  IC90: 0.5 µg/mL (≈ 0.821 µM)
[15]
  IC50: 1.11 µg/mL (≈ 1.82 µM)
  IC90: 4.11 µg/mL (≈ 6.75 µM)
[16]
  IC50: 1.73 µg/mL (≈ 2.84 µM)
  IC90: 5.25 µg/mL (≈ 8.62 µM)
[17]
  IC50: 2.4 µg/mL (≈ 3.94 µM)
  IC90: 6.6 µg/mL (≈ 10.8 µM)
[18]
  IC50: 1.94 µg/mL (≈ 3.19 µM)
  IC90: 8.98 µg/mL (≈ 14.8 µM)
[19]
  IC50: 2.4 µg/mL (≈ 3.94 µM)
  IC90: 5.7 µg/mL (≈ 9.36 µM)
[20]
  IC50: 3.61 µg/mL (≈ 5.93 µM)
  IC90: 14.5 µg/mL (≈ 23.8 µM)
[21]
  IC50: 4.08 µg/mL (≈ 6.7 µM)
  IC90: 7.64 µg/mL (≈ 12.6 µM)
[22]
  IC50: 3.14 µg/mL (≈ 5.16 µM)
  IC90: 11.6 µg/mL (≈ 19.1 µM)
